Among the data in patent US20140315886A1, “QUINAZOLINES AS THERAPEUTIC COMPOUNDS AND RELATED METHODS OF USE” (OTSUKA PHARMACEUTICAL CO., LTD., priority 2011, published 2014) are IC50 values, retold here.

Bounds are passed on as bounds.

The assay addresses T1, purified STEP46 enzyme (Homo sapiens, UniProt P54829).
T1 sequence (P54829 197-565 limits assumed): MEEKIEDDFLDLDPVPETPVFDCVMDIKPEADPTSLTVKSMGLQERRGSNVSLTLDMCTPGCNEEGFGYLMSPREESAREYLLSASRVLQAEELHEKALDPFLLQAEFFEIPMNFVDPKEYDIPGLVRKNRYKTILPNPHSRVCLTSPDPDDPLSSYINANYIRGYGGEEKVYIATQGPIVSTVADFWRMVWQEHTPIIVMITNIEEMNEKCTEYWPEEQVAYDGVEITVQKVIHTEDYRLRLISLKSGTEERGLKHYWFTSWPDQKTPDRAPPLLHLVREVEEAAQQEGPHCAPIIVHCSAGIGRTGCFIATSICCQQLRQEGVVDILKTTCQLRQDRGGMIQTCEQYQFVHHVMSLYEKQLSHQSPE
Kind of assay: STEP46 biochemical assay (DiFMUP fluorescence phosphatase assay). The following applies: DiFMUP 10 μM, read-out: STEP IC50. The essentials:
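Purified human STEP46 preincubated 30 min at room temperature with compounds in Hepes/DTT/Brij35 buffer (2% DMSO final), then reacted with 10 μM DiFMUP for 90 min at 27°C; fluorescence read at 360/460 nm. IC50 from four-parameter fit; activation shown as negative % inhibition at 25, 50, 100 uM.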

What is called IC50 is the concentration needed to halve the response being measured. In the case of `Fc1cccc(-c2ccc3nc(-c4cccnc4)nc(N4CCc5cc(Cl)ccc54)c3c2)c1F` [Compound 75], the IC50 was in the range of 1 to 10 µM.
To `CC(Nc1nc(-c2cccnc2)nc2cc(-c3ccccc3F)ccc12)c1ccccn1` (centres unmarked) [Compound 371] belongs less than 1 µM.
As for `CNc1nc(-c2cccnc2)nc2ccc(-c3cnc(-c4ccccc4)s3)cc12` [Compound 464], the 50% inhibitory concentration (IC50) is more than 10 µM.
As for `CN(C)CCCN(C)c1nc(-c2cccnc2)nc2cc(-c3cc(F)ccc3F)ccc12` [Compound 314], the figure is more than 10 µM.
In the case of `CNc1nc(-c2cccnc2)nc2c(OC)cc(-c3cccc(C#N)c3)cc12` [Compound 206], the IC50 was more than 10 µM.
For `CNc1nc(-c2cccnc2)nc2cc(-c3c(F)cc(F)cc3F)ccc12` [Compound 454], the concentration for half-maximal inhibition (IC50) is 1 to 10 µM.
As for `Cc1ccc2c(c1)CCN2c1nc(-c2cccnc2)nc2ccc(-c3ccc(F)cc3F)cc12` [Compound 73], the figure is 1 to 10 µM; as for `CNc1nc(-c2cncnc2)nc2cc(-c3cc(F)ccc3F)ccc12` [Compound 155], 1 to 10 µM.
Take `COc1ccc2nc(-c3cccnc3)nc(Nc3cccc(F)n3)c2c1` [Compound 32]: the IC50 was more than 10 µM.
To `FCCNc1nc(-c2cccnc2)nc2ccc(-c3cccc(F)c3F)cc12` [Compound 406] belongs more than 10 µM; to `Cc1c(-c2cccc(C#N)c2)ccc2c(N(C)C)nc(-c3cccnc3)nc12` [Compound 290], more than 10 µM; to `Cc1ccc2c(c1)CCN2c1nc(-c2cccnc2)nc2ccc(-c3cccc(F)c3)cc12` [Compound 78], 1 to 10 µM.
To `CNc1nc(-c2cccnc2)nc2c(F)c(-c3csc4ccccc34)ccc12` [Compound 537] belongs 1 to 10 µM; to `COc1ccc(-c2ccc3nc(-c4cccnc4)nc(NCc4ccccn4)c3c2)cc1` [Compound 344], 1 to 10 µM; to `CC(Nc1nc(-c2cccnc2)nc2ccc(-c3ccc(F)c(F)c3)cc12)c1ccccc1` (centres unmarked) [Compound 350], 1 to 10 µM.
As for `CNc1nc(-c2cccnc2)nc2c(F)cc(-c3cccc(C#N)c3)cc12` [Compound 570], the figure is less than 1 µM.
Regarding `CNc1nc(-c2cccnc2)nc2ccc(-c3cc(F)cc(F)c3)c(OC)c12` [Compound 488], the IC50 is more than 10 µM.
To `Fc1ccc(-c2ccc3nc(-c4cccnc4)nc(Nc4cc(F)ccn4)c3c2)cc1` [Compound 442] belongs 1 to 10 µM; to `CC(Nc1nc(-c2cccnc2)nc2ccc(-c3cccc(F)c3F)cc12)c1ccccc1` (centres unmarked) [Compound 606], 1 to 10 µM.
To `CNc1nc(-c2cccnc2)nc2ccc(-c3ccc(C)cc3F)cc12` [Compound 239] belongs 1 to 10 µM; to `CNc1nc(-c2ccnnc2)nc2ccc(-c3cccc(F)c3)cc12` [Compound 212], more than 10 µM; to `CNc1nc(-c2cncc(C#N)c2)nc2cc(-c3cc(F)ccc3F)ccc12` [Compound 163], 1 to 10 µM.
As for `CNc1nc(-c2cccnc2)nc2c(F)cc(-c3ccc(OC)cc3)cc12` [Compound 573], the figure is 1 to 10 µM; as for `CNc1nc(-c2cccnc2)nc2c(F)cc(-c3cc(F)cc(F)c3)cc12` [Compound 569], 1 to 10 µM; as for `COC1CN(c2nc(-c3cccnc3)nc3ccc(-c4ccc(F)cc4F)cc23)C1` [Compound 413], 1 to 10 µM.
For the compound `CNc1nc(-c2cccnc2)nc2c(OC)cc(-c3ccc(F)cc3F)cc12` [Compound 195], the 50% inhibitory concentration (IC50) was less than 1 µM.
`O=[N+]([O-])c1ccc2c(c1)CCN2c1nc(-c2cccnc2)nc2ccc(-c3cccc(F)c3F)cc12` [Compound 83]: the IC50 is less than 1 µM.
On to `Fc1ccc(-c2ccc3nc(-c4cccnc4)nc(N4CCc5ccccc54)c3c2)cc1` [Compound 88], for which the IC50 is 1 to 10 µM.
As for `Fc1ccc(-c2ccc3nc(-c4cccnc4)nc(N4CC(F)(F)C4)c3c2)c(F)c1` [Compound 415], the figure is more than 10 µM; as for `CNc1nc(-c2cnccn2)nc2cc(-c3cc(F)ccc3F)ccc12` [Compound 396], 1 to 10 µM; as for `CNc1nc(-c2cccnc2)nc2c(F)c(-c3ccc(OC)c(F)c3)ccc12` [Compound 544], less than 1 µM.
On to `CNc1nc(-c2cnccn2)nc2cc(-c3cc(F)cc(F)c3)ccc12` [Compound 398], for which the IC50 lay within 1 to 10 µM.
Consider `CCOc1cccc(-c2ccc3c(NC)nc(-c4cccnc4)nc3c2)c1` [Compound 141], for which the IC50 lay in the range of 1 to 10 µM.
To `CNc1nc(-c2cccnc2)nc2ccc(-c3cc(C)oc3C)cc12` [Compound 285] belongs 1 to 10 µM.
To `Fc1ccc(-c2ccc3nc(-c4cccnc4)nc(Nc4ccc(F)cn4)c3c2)cc1` [Compound 436] belongs 1 to 10 µM.
On to `Cc1ccc2c(c1)N(c1nc(-c3cccnc3)nc3ccc(Br)cc13)CC2` [Compound 20], for which the IC50 lay in the range of 1 to 10 µM.
As for `COc1ccc2nc(-c3cccnc3)nc(Nc3cc(F)ccn3)c2c1` [Compound 31], the figure is 1 to 10 µM; as for `COc1ccc2c(N3CCc4cc(Cl)ccc43)nc(-c3cccnc3)nc2c1` [Compound 12], 1 to 10 µM.
In the case of `Fc1ccc(-c2ccc3c(N4CCc5cc(Cl)ccc54)nc(-c4cccnc4)nc3c2)c(F)c1` [Compound 94], the IC50 fell in the range of 1 to 10 µM.
As for `Fc1ccc(-c2ccc3nc(-c4cccnc4)nc(N4CCc5cc(Cl)ccc54)c3c2)cc1` [Compound 86], the figure is 1 to 10 µM; as for `CNc1nc(-c2cccnc2)nc2c(C)c(-c3ccncc3)ccc12` [Compound 293], 1 to 10 µM; as for `CNc1nc(-c2cccnc2)nc2c(F)c(-c3cc(F)c(F)cc3F)ccc12` [Compound 522], 1 to 10 µM.
On to `COc1ccc2nc(-c3cccnc3)nc(Nc3cncc(F)c3)c2c1` [Compound 25], for which the IC50 fell in the range of 1 to 10 µM.
As for `CNc1nc(-c2cccnc2)nc2cc(-c3cccc(OC)c3F)ccc12` [Compound 215], the figure is 1 to 10 µM; as for `CNc1nc(-c2cccnc2)nc2cc(F)c(-c3ccc(F)c(F)c3)cc12` [Compound 591], less than 1 µM; as for `CNc1nc(-c2cccnc2)nc2c(F)c(-c3cccc(F)c3)ccc12` [Compound 510], 1 to 10 µM.
As for `Cc1ccc(Nc2nc(-c3cccnc3)nc3ccc(Cl)cc23)nc1` [Compound 57], the figure is 1 to 10 µM; as for `CNc1nc(-c2cccnc2)nc2cc(-c3cc(F)cc(OCC(=O)N(C)C)c3)ccc12` [Compound 143], 1 to 10 µM.
As for `CNc1nc(-c2cccnc2)nc2ccc(-c3cc4[nH]c(=O)oc4cc3F)cc12` [Compound 477], the figure is less than 1 µM; as for `CNc1nc(-c2cccnc2)nc2cc(F)c(-c3ccc(C#N)cc3)cc12` [Compound 592], 1 to 10 µM.
As to `Cn1ccc2cc(-c3ccc4nc(-c5cccnc5)nc(NCc5ccccn5)c4c3)ccc21` [Compound 342], the half-inhibitory concentration (IC50) is less than 1 µM.
To `Fc1cccc(-c2ccc3nc(-c4cccnc4)nc(NCc4ccccn4)c3c2)c1` [Compound 373] belongs more than 10 µM; to `CNc1nc(-c2cccnc2)nc2c(C)c(-c3ccc(F)c(F)c3F)ccc12` [Compound 286], 1 to 10 µM; to `CNc1nc(-c2cccnc2)nc2c(F)c(-c3ccc(F)c(F)c3)ccc12` [Compound 517], 1 to 10 µM.
As to `CNc1nc(-c2cccnc2)nc2ccc(-c3cccc4c3CNC4=O)cc12` [Compound 450], the 50% inhibitory concentration (IC50) was in the range of 1 to 10 µM.
To `CNc1nc(-c2cccnc2)nc2ccc(-c3ccnc(C#N)c3)cc12` [Compound 167] belongs 1 to 10 µM.
With `Fc1ccc(-c2ccc3nc(-c4cccnc4)nc(N4CCc5ccc(Cl)cc54)c3c2)cc1` [Compound 93], the concentration for half-maximal inhibition (IC50) was 1 to 10 µM.
To `CC(Nc1nc(-c2cccnc2)nc2ccc(-c3ccc(F)cc3F)cc12)c1ccccc1` (centres unmarked) [Compound 607] belongs 1 to 10 µM; to `Fc1ccc(CNc2nc(-c3cccnc3)nc3ccc(-c4cccc(F)c4F)cc23)cc1F` [Compound 361], more than 10 µM.
As to `Fc1ccc(-c2ccc3nc(-c4cccnc4)nc(Nc4cncc(F)c4)c3c2)cc1` [Compound 440], the half-maximal inhibitory concentration (IC50) was in the range of 1 to 10 µM.
To `CNc1nc(-c2cccnc2)nc2cc(-c3ccco3)ccc12` [Compound 317] belongs more than 10 µM.
To `CNc1nc(-c2cncc(C)c2)nc2cc(-c3cc(F)ccc3F)ccc12` [Compound 160] belongs 1 to 10 µM; to `Cc1c(-c2cncnc2)ccc2c(N3CCc4cc(Cl)ccc43)nc(-c3cccnc3)nc12` [Compound 115], less than 1 µM.
With `CNc1nc(-c2cccnc2)nc2c(F)cc(-c3cccc(F)c3)cc12` [Compound 563], the IC50 lay in the range of 1 to 10 µM.
As for `CC(=O)Nc1cccc(-c2ccc3c(N4CCc5cc(Cl)ccc54)nc(-c4cccnc4)nc3c2)c1` [Compound 102], the figure is 1 to 10 µM; as for `CNc1nc(-c2cccnc2)nc2cc(-c3ccc(C)o3)ccc12` [Compound 273], 1 to 10 µM; as for `CNc1nc(-c2cccnc2)nc2c(OC)cc(-c3cccc(F)c3F)cc12` [Compound 194], 1 to 10 µM.
As for `CNc1nc(-c2cnccn2)nc2cc(-c3cccc(F)c3)ccc12` [Compound 392], the figure is 1 to 10 µM.
As for `O=[N+]([O-])c1cccc(-c2ccc3nc(-c4cccnc4)nc(N4CCc5cc(Cl)ccc54)c3c2)c1` [Compound 82], the figure is 1 to 10 µM; as for `CNc1nc(-c2cccnc2)nc2cc(C(F)(F)F)c(-c3ccc(F)cc3F)cc12` [Compound 198], more than 10 µM; as for `CNc1nc(-c2cccnc2)nc2cc(-c3ccsc3)ccc12` [Compound 320], 1 to 10 µM.
